{
  "source": "patent US8927572B2",
  "about": "“Crystal form I of salt of a dipeptidyl peptidase-IV inhibitor and preparation method and use thereof” (Xuanzhu Pharma Co., Ltd., priority 2011, dated 2015)",
  "key": {"[1]": {"assay": "In vivo pharmacokinetics in SD rats", "parameters": "species or system SD (Sprague Dwaley) rats", "method": "(§1) Test sample: the crystal form I of dihydrochloride salt of Compound A prepared from Example 1.\nExperimental Animals: SD (Sprague Dwaley) rats, quantity 12.\nThe SD rats were divided into two groups, namely Intravenous Injection group and Intragastric Administration group, and there were 6 rats in each group in which one half were female and the other were male. The dose administrated was always 10 mg/kg (in terms of Compound A). The volume administered by the intravenous injection route was 5 mL/kg, and the volume administered by the intragastric administration route was 10 mL/kg. The time points for sequential blood sampling were 0 minutes before administration (0 min), and 5 min, 15 min, 30 min, 1 h, 2 h, 4 h, 6 h, 8 h, 12 h and 24 h after administration. About 150 μL of blood was collected into a sodium heparin anticoagulation tube from the caudal vein or Inner canthus vein after administration. The whole blood was placed in a high-speed refrigerated centrifuge (8000 rpm, 0-4° C.) and centrifuged for 6 min. The supernatant of the blood plasma was separated and stored in a refrigerator for measurement. The centrifugation of all blood samples was completed within 30 min after blood collection. The concentration of Compound A in the blood plasma of SD rats was determined by LC-MS/MS method.\nAnalysis and processing of Data: The plasma concentration—time curve was plotted, and the pharmacokinetic parameters were calculated by using the non-compartment model in Phrsight Phoenix 6.1."}, "[2]": {"assay": "Investigation on the water solubility", "assay_type": "physicochemical", "description": "Investigation on the Water Solubility of Crystal Form I of Dihydrochloride Salt of Compound A"}, "DPP-IV": {"target": "DPP-IV (Homo sapiens, UniProt P27487)", "sequence (P27487 whole entry, species assumed)": "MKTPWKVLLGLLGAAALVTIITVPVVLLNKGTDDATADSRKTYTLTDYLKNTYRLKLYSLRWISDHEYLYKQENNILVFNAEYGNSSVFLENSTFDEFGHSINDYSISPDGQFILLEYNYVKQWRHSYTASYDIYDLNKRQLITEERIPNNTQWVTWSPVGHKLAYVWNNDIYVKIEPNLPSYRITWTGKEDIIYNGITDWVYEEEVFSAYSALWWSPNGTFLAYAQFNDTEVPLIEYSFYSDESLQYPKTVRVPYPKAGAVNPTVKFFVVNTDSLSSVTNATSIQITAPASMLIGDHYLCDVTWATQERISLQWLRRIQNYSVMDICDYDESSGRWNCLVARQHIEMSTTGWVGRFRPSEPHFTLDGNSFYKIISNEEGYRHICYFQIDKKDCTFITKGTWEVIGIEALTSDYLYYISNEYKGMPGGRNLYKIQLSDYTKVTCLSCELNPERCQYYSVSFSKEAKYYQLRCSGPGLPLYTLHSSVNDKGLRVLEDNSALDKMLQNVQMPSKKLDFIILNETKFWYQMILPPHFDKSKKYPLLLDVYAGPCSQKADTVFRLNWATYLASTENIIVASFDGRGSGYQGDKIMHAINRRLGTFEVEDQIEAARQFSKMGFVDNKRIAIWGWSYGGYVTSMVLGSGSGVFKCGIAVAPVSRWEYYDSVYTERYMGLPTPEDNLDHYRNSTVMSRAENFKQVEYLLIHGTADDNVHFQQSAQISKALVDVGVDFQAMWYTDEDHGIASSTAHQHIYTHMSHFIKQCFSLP", "conditions": "background; described in CN201010291056.9; cited from earlier work"}, "[3]": {"assay": "Influence factor stability test (high temperature, high humidity, light irradiation)", "assay_type": "physicochemical", "method": "The crystal form I of dihydrochloride salt of Compound A prepared from Example 1.\nThe Test Conditions for Investigating the Influencing Factors:\nEach of the test samples was placed at a high temperature of 60° C. (packed with an plastic bag for packing drugs as the inner layer and an aluminium foil as the outer layer), a high humidity of RH75%±5% (uniformly spread on a dry and clean watch glass), and a light irradiation of 4500 Lx±500 Lx (uniformly spread on a dry and clean watch glass). Sampling was performed on Day 5 and Day 10 respectively, and Relevant Substance and the content of Compound A were measured and compared with those of the sample on Day 0.\n(§2) The content was measured by using an External Standard method in accordance with the High Performance Liquid Chromatography in Chinese Pharmacopoeia, Appendix V D, Edition 2010.\n(§3) Measurement of Relevant Substance\n(§4) The Relevant Substance was measured by using an Area Normalization method in accordance with the High Performance Liquid Chromatography in Chinese Pharmacopoeia, Appendix V D, Edition 2010."}, "Long-term stability test": {"assay": "Long-term stability test", "assay_type": "physicochemical", "conditions": "for Content of Compound A (%) / Content of Relevant Substance (%) / Properties: 25° C.±2° C., RH 60%±10%", "method": "The Test Conditions for Investigating the Long-Term Stability:\nEach of the test samples was placed at a temperature of 25° C.±2° C. and a humidity of RH 60%±10%. Sampling was performed at the end of Months 3, 6, 9, 12 and 18 respectively, and Relevant Substance and the content of Compound A were measured and compared with those of the sample on Day 0. During the investigation, the sample was packed with a plastic bag for packing drugs as the inner layer and an aluminium foil as the outer layer.\nas §2, §3, §4"}, "blood glucose": {"system": "blood glucose", "assay": "Oral Glucose Tolerance Test (OGTT) in mice", "assay_type": "in vivo, Mice C57BL/6", "conditions": "for inhibition ratio for the blood glucose AUC: glucose 3 g/kg", "method": "as §1\nExperimental animals: Mice C57BL/6, quantity 40.\nOn the day before the test, the food for mice was removed at 5 p.m., and the mice were fasted overnight. On the second day, the fasting blood glucose of each mouse was checked at 9 a.m. and recorded as −30 min blood glucose. The body weight was weighed and recorded. After balancing the blood glucose level and body weight, the mice were randomly divided into four groups, namely Background Control group, Vehicle Control group, Dosing group 1 and Dosing group 2. To the later three groups, a vehicle (0.9% sodium chloride injection solution), 1 mg/kg test sample and 3 mg/kg test sample was administered respectively, and the volume administered was 10 mL/kg. The blood glucose of each mouse was measured and recorded as 0 min blood glucose 30 minutes after the intragastric administration. Afterwards glucose was further administered via intragastric administration at a dose of 3 g/kg to the Vehicle Control group, Dosing group 1 and Dosing group 2, and 0.9% sodium chloride injection solution was administered via intragastric administration to the Background Control group at an intragastric administration volume of 10 mL/kg. Then, the blood glucose levels were measured at 20, 40, 60 and 120 minutes after the administration of glucose or sodium chloride solution.\nAnalysis and Processing of the Data:\nThe area under the time-blood glucose curve of the OGTT (Oral Glucose Tolerance Test) (AUC) was calculated. A net variable AUC (ΔAUC) was obtained by subtracting the AUC of Background Control group from that of Vehicle Control group, Dosing groups 1 and 2. The inhibition ratio (%)=100×(ΔAUCVehicle Control group-ΔAUC)/ΔAUCVehicle Control group, wherein ΔAUC is the net variable AUC of each Dosing group, and ΔAUCVehicle Control group is the net variable AUC of Vehicle Control group. The data of Dosing groups were compared with that of Vehicle Control group by using t-test value analysis, and the difference was considered significant at p<0.05."}, "[4]": {"conditions": "intravenous injection, 10 mg/kg (in terms of Compound A)"}},
  "note": "Where a name gives a salt, the structure may show the parent alone.",
  "data": [
    {"smiles": "Cc1cc(N2CCC[C@@H](N)C2)c2c(n1)n(C)c(=O)n2Cc1ccccc1C#N", "values": [
      {"measurement": "bioavailability", "setting": "[1]; both sexes, Sprague-Dawley, rat, plasma, oral, intragastric vs intravenous, 10 mg/kg (in terms of Compound A), read-out: bioavailability (F %)", "value": 96.6, "unit": "%"}
    ]},
    {"smiles": "Cc1cc(N2CCC[C@@H](N)C2)c2c(n1)n(C)c(=O)n2Cc1ccccc1C#N", "note": "[Compound A, (R)-2-[[7-(3-aminopiperidin-1-yl)-3,5-dimethyl-2-oxo-2,3-dihydro-1H-imidazo[4,5-b]pyridin-1-yl]methyl]benzonitrile]", "values": [
      {"measurement": "Water solubility", "setting": "[2]", "value": "<0.1", "unit": "mg/mL"},
      {"measurement": "Water solubility (in words)", "setting": "[2]", "value": "hardly dissolved or insoluble in water"},
      {"measurement": "inhibitory effect for DPP-IV (in words)", "setting": "DPP-IV", "value": "strong inhibitory effect"},
      {"measurement": "selectivity for DPP-IV (in words)", "setting": "DPP-IV", "value": "very high selectivity"}
    ]},
    {"smiles": "Cc1cc(N2CCC[C@@H](N)C2)c2c(n1)n(C)c(=O)n2Cc1ccccc1C#N", "note": "[crystal form I of dihydrochloride salt of Compound A]", "values": [
      {"measurement": "Water solubility", "setting": "[2]", "value": ">1000", "unit": "mg/mL"},
      {"measurement": "Water solubility (in words)", "setting": "[2]", "value": "dissolved very easily in water"},
      {"measurement": "Content of Compound A (%)", "setting": "[3]; 60° C., Day 5", "value": 98.80, "unit": "%"},
      {"measurement": "Content of Relevant Substance (%)", "setting": "[3]; 60° C., Day 5", "value": 0.156, "unit": "%"},
      {"measurement": "Properties", "setting": "[3]; 60° C., Day 5", "value": "white crystalline"},
      {"measurement": "Content of Compound A (%)", "setting": "[3]; 60° C., Day 10", "value": 99.42, "unit": "%"},
      {"measurement": "Content of Relevant Substance (%)", "setting": "[3]; 60° C., Day 10", "value": 0.142, "unit": "%"},
      {"measurement": "Properties", "setting": "[3]; 60° C., Day 10", "value": "white crystalline"},
      {"measurement": "Content of Compound A (%)", "setting": "[3]; 4500Lx ± 500Lx, Day 5", "value": 98.09, "unit": "%"},
      {"measurement": "Content of Relevant Substance (%)", "setting": "[3]; 4500Lx ± 500Lx, Day 5", "value": 0.194, "unit": "%"},
      {"measurement": "Properties", "setting": "[3]; 4500Lx ± 500Lx, Day 5", "value": "white crystalline"},
      {"measurement": "Content of Compound A (%)", "setting": "[3]; 4500Lx ± 500Lx, Day 10", "value": 99.17, "unit": "%"},
      {"measurement": "Content of Relevant Substance (%)", "setting": "[3]; 4500Lx ± 500Lx, Day 10", "value": 0.159, "unit": "%"},
      {"measurement": "Properties", "setting": "[3]; 4500Lx ± 500Lx, Day 10", "value": "white crystalline"},
      {"measurement": "Content of Compound A (%)", "setting": "[3]; Day 0", "value": 99.16, "unit": "%"},
      {"measurement": "Content of Relevant Substance (%)", "setting": "[3]; Day 0", "value": 0.151, "unit": "%"},
      {"measurement": "Properties", "setting": "[3]; Day 0", "value": "white crystalline"},
      {"measurement": "Content of Compound A (%)", "setting": "[3]; RH 75% ± 5%, Day 5", "value": 99.30, "unit": "%"},
      {"measurement": "Content of Relevant Substance (%)", "setting": "[3]; RH 75% ± 5%, Day 5", "value": 0.200, "unit": "%"},
      {"measurement": "Properties", "setting": "[3]; RH 75% ± 5%, Day 5", "value": "white crystalline"},
      {"measurement": "Content of Compound A (%)", "setting": "[3]; RH 75% ± 5%, Day 10", "value": 99.55, "unit": "%"},
      {"measurement": "Content of Relevant Substance (%)", "setting": "[3]; RH 75% ± 5%, Day 10", "value": 0.171, "unit": "%"},
      {"measurement": "Properties", "setting": "[3]; RH 75% ± 5%, Day 10", "value": "white crystalline"},
      {"measurement": "Relevant Substance and the content of Compound A (change, in words)", "setting": "[3]; high temperature, high humidity and light irradiation", "value": "substantially unchanged"},
      {"measurement": "Content of Compound A (%)", "setting": "Long-term stability test; Month 0", "value": 99.53, "unit": "%"},
      {"measurement": "Content of Relevant Substance (%)", "setting": "Long-term stability test; Month 0", "value": 0.211, "unit": "%"},
      {"measurement": "Properties", "setting": "Long-term stability test; Month 0", "value": "white crystalline"},
      {"measurement": "Content of Compound A (%)", "setting": "Long-term stability test; Month 3", "value": 99.32, "unit": "%"},
      {"measurement": "Content of Relevant Substance (%)", "setting": "Long-term stability test; Month 3", "value": 0.251, "unit": "%"},
      {"measurement": "Properties", "setting": "Long-term stability test; Month 3", "value": "white crystalline"},
      {"measurement": "Content of Compound A (%)", "setting": "Long-term stability test; Month 6", "value": 99.19, "unit": "%"},
      {"measurement": "Content of Relevant Substance (%)", "setting": "Long-term stability test; Month 6", "value": 0.246, "unit": "%"},
      {"measurement": "Properties", "setting": "Long-term stability test; Month 6", "value": "white crystalline"},
      {"measurement": "Content of Compound A (%)", "setting": "Long-term stability test; Month 9", "value": 98.99, "unit": "%"},
      {"measurement": "Content of Relevant Substance (%)", "setting": "Long-term stability test; Month 9", "value": 0.248, "unit": "%"},
      {"measurement": "Properties", "setting": "Long-term stability test; Month 9", "value": "white crystalline"},
      {"measurement": "Content of Compound A (%)", "setting": "Long-term stability test; Month 12", "value": 99.17, "unit": "%"},
      {"measurement": "Content of Relevant Substance (%)", "setting": "Long-term stability test; Month 12", "value": 0.221, "unit": "%"},
      {"measurement": "Properties", "setting": "Long-term stability test; Month 12", "value": "white crystalline"},
      {"measurement": "Content of Compound A (%)", "setting": "Long-term stability test; Month 18", "value": 99.37, "unit": "%"},
      {"measurement": "Content of Relevant Substance (%)", "setting": "Long-term stability test; Month 18", "value": 0.221, "unit": "%"},
      {"measurement": "Properties", "setting": "Long-term stability test; Month 18", "value": "white crystalline"},
      {"measurement": "Relevant Substance and the content of Compound A (change, in words)", "setting": "Long-term stability test; long-term stability investigating test", "value": "substantially unchanged"},
      {"measurement": "effect for reducing blood glucose (in words)", "setting": "blood glucose; mice C57BL/6", "value": "significant effect for reducing blood glucose"},
      {"measurement": "inhibition ratio for the blood glucose AUC", "setting": "blood glucose; mice C57BL/6, 1 mg/kg intragastric", "value": 57, "unit": "%"},
      {"measurement": "inhibition ratio for the blood glucose AUC", "setting": "blood glucose; mice C57BL/6, 3 mg/kg intragastric", "value": 65, "unit": "%"},
      {"measurement": "in vivo bioavailability (in words)", "setting": "[1]", "value": "high"},
      {"measurement": "apparent volume of distribution (Vd)", "setting": "[1]; [4]", "value": 6.17, "unit": "L/kg"},
      {"measurement": "plasma clearance (CL)", "setting": "[1]; [4]", "value": 40, "unit": "mL/min/kg"}
    ]}
  ]
}
